ChEMBL document CHEMBL1201862, “PubChem BioAssay data set” (2004)
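Grown in 96-well plates, cells were treated for 48 hours with each compound at five concentrations. Insufficient inhibition: endpoint recorded as highest concentration tested. GI50: concentration for 50% inhibition of growth.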 Active and inactive are the calls of the source. Rule as the data show it: active = GI50 up to about 1.1 µM and inactive = higher.

Key:
Assay in all cases: inhibition of tumour cell growth, NCI panel, 48 h
[1] = tested on: A549
[2] = tested on: CAKI-1
[3] = tested on: COLO 205
[4] = tested on: EKVX
[5] = tested on: HCT-15
[6] = tested on: HL-60
[7] = tested on: MOLT-4
[8] = tested on: NCI-H23
[9] = tested on: NCI-H460
[10] = tested on: OVCAR-4
[11] = tested on: OVCAR-8
[12] = tested on: RPMI-8226
[13] = tested on: SF-268
[14] = tested on: SF-295
[15] = tested on: SF-539
[16] = tested on: SK-MEL-5
[17] = tested on: SNB-19
[18] = tested on: U-251
[19] = tested on: HCT-116
[20] = tested on: UACC-62

| Structure (SMILES) | GI50 [1] | GI50 [2] | GI50 [3] | GI50 [4] | GI50 [5] [µM] | GI50 [6] | GI50 [7] | GI50 [8] | GI50 [9] | GI50 [10] | GI50 [11] | GI50 [12] | GI50 [13] | GI50 [14] | GI50 [15] | GI50 [16] | GI50 [17] | GI50 [18] | GI50 [19] | GI50 [20] |
| --- | --- | --- | --- | --- | --- | --- | --- | --- | --- | --- | --- | --- | --- | --- | --- | --- | --- | --- | --- | --- |
| CC(=O)Nc1cc2c(cc1O)CC[C@@H]1[C@@H]2CC[C@]2(C)[C@@H](O)CC[C@@H]12 | 36.6 µM (inactive) | 84.1 µM (inactive) | 30 µM (inactive) | 33 µM (inactive) | 15.3 | 29.6 µM (inactive) | 34.7 µM (inactive) | 47.3 µM (inactive) | 34.8 µM (inactive) | > 100 µM (inactive) | 44.3 µM (inactive) | 45.3 µM (inactive) | 13.1 µM (inactive) | 31.3 µM (inactive) | 34.5 µM (inactive) | 22.4 µM (inactive) | > 100 µM (inactive) | 42 µM (inactive) | – | – |
| C=CCN1C(N)=C(C(N)=O)S/C1=C1/SC(=S)N(c2ccc(C)cc2)C1=O | > 100 µM (inactive) | – | > 100 µM (inactive) | – | – | > 100 µM (inactive) | > 100 µM (inactive) | 65.3 µM (inactive) | > 100 µM (inactive) | – | > 100 µM (inactive) | > 100 µM (inactive) | > 100 µM (inactive) | 49.8 µM (inactive) | > 100 µM (inactive) | > 100 µM (inactive) | > 100 µM (inactive) | > 100 µM (inactive) | > 100 µM (inactive) | > 100 µM (inactive) |
| Cc1sc(Cc2ccccc2)nc1-c1ccc(N)cc1 | 30.6 µM (inactive) | 24 µM (inactive) | 23.1 µM (inactive) | 31.4 µM (inactive) | 19.8 | 26.2 µM (inactive) | 13.8 µM (inactive) | 32.9 µM (inactive) | 23 µM (inactive) | 12.7 µM (inactive) | 31 µM (inactive) | 16.3 µM (inactive) | 25 µM (inactive) | 37.4 µM (inactive) | – | 18 µM (inactive) | 48.4 µM (inactive) | 26.6 µM (inactive) | 20.2 µM (inactive) | 15.1 µM (inactive) |
| O=C(O)c1ccc([Se][Se]c2ccc(C(=O)O)cc2)cc1 | 25.8 µM (inactive) | 19.4 µM (inactive) | 32.9 µM (inactive) | 23.6 µM (inactive) | 35.6 | – | – | 19.3 µM (inactive) | 6.65 µM (inactive) | 19.2 µM (inactive) | 28.6 µM (inactive) | 21.2 µM (inactive) | 33.9 µM (inactive) | 23.6 µM (inactive) | 36.1 µM (inactive) | – | 34.1 µM (inactive) | 21.1 µM (inactive) | 18.1 µM (inactive) | 19.3 µM (inactive) |
| COP(=O)(OC)C(N)CCSC (configuration not stated) | > 100 µM (inactive) | > 100 µM (inactive) | > 100 µM (inactive) | > 100 µM (inactive) | > 100 | > 100 µM (inactive) | > 100 µM (inactive) | > 100 µM (inactive) | > 100 µM (inactive) | > 100 µM (inactive) | > 100 µM (inactive) | > 100 µM (inactive) | > 100 µM (inactive) | > 100 µM (inactive) | – | > 100 µM (inactive) | > 100 µM (inactive) | > 100 µM (inactive) | > 100 µM (inactive) | > 100 µM (inactive) |
| CS/C(=N\S(=O)(=O)c1ccc(Cl)cc1)NCCN/C(=N/S(=O)(=O)c1ccc(Cl)cc1)SC | – | > 100 µM (inactive) | > 100 µM (inactive) | 18.7 µM (inactive) | > 100 | > 100 µM (inactive) | > 100 µM (inactive) | 48 µM (inactive) | > 100 µM (inactive) | 2.3 µM (inactive) | 19.9 µM (inactive) | > 100 µM (inactive) | 21.3 µM (inactive) | 61.2 µM (inactive) | 61.4 µM (inactive) | – | 35.7 µM (inactive) | 18 µM (inactive) | > 100 µM (inactive) | > 100 µM (inactive) |
